Source: the supplement of paper PMC10307832

Compound: CCCS(=O)(=O)Nc1ccc(F)c(C(=O)c2c[nH]c3ncc(-c4ccc(Cl)cc4)cc23)c1F [Vemurafenib] + COc1cc2c(Oc3ccc(NC(=O)C4(C(=O)Nc5ccc(F)cc5)CC4)cc3F)ccnc2cc1OCCCN1CCOCC1 [Foretinib] (partner 0.25 µM)
Assay: relative viability (nuclei count vs DMSO), 5 days (fraction); higher = more cells survive
Conditions: first compound 0.03162 µM
Method in brief: (§1)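 Relative viability was taken as the ratio of nuclei in treated wells to nuclei in vehicle wells. Lung cancer cell lines in 1536-well plates received compounds by pin tool one day after seeding, either one drug alone or a fixed anchor-drug dose plus five library-drug doses (not always all listed) in √10 steps. Nuclei were counted on 4× images after 5 days of treatment, and values are medians of duplicate plates.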

Cell Line | relative viability
NCI-H2126 | 1.13
EPLC-272H | 0.614
NCI-H1755 | 0.882
NCI-H2023 | 0.881
NCI-H1623 | 0.896
NCI-H1793 | 0.789
NCI-H2342 | 1.14
H3255 | 0.945
NCI-H1975 | 0.957
PC-14 | 0.882
NCI-H1299 | 1.05
NCI-H1437 | 1.18
HOP-62 | 1.06
BEN | 0.534
LOU-NH91 | 0.914
NCI-H661 | 1.06
NCI-H1651 | 0.647
PC-3 [JPC-3] | 0.911
SW 1573 | 0.906
LK-2 | 1.37
NCI-H2405 | 1

Cell Line | relative viability
NCI-H1703 | 0.358
NCI-H1993 | 0.793
ChaGo-K-1 | 0.885
NCI-H1355 | 0.922
HCC-366 | 0.988
NCI-H1915 | 1.09
NCI-H838 | 0.964
A-427 | 1.01
NCI-H2009 | 1.19
ABC-1 | 1.05
Calu-6 | 0.841
NCI-H2170 | 0.907
NCI-H1944 | 0.868
NCI-H1395 | 1.02
NCI-H358 | 0.638
EBC-1 | 0.108
A549 | 0.945
IA-LM | 1.16
SW 900 | 1.11
SK-MES-1 | 0.91

Same assay, conditions: first compound 0.1 µM

Cell Line | relative viability
NCI-H2126 | 0.696
EPLC-272H | 0.435
NCI-H1755 | 0.889
NCI-H2023 | 0.811
NCI-H1650 | 0.649
NCI-H2342 | 0.943
NCI-H1975 | 0.969
NCI-H1299 | 1.06
NCI-H1437 | 1.22
HOP-62 | 1.08
BEN | 0.575
NCI-H661 | 0.956
NCI-H1651 | 0.742
SW 1573 | 0.893
LK-2 | 0.913
NCI-H2405 | 1.03
NCI-H1703 | 0.307
ChaGo-K-1 | 0.938

Cell Line | relative viability
NCI-H1355 | 0.924
HCC-366 | 0.922
NCI-H1915 | 1.05
NCI-H838 | 1.05
A-427 | 0.951
NCI-H2009 | 1.18
ABC-1 | 1.16
Calu-6 | 0.855
NCI-H2170 | 0.858
NCI-H1944 | 0.614
NCI-H1395 | 0.976
NCI-H358 | 0.494
EBC-1 | 0.0915
A549 | 0.872
IA-LM | 1.26
SW 900 | 0.693
SK-MES-1 | 0.461

Same assay, conditions: first compound 0.3162 µM

Cell Line | relative viability
NCI-H2126 | 1.31
EPLC-272H | 0.873
NCI-H1755 | 0.891
NCI-H2023 | 1.09
NCI-H1623 | 1.03
NCI-H1793 | 0.709
NCI-H2342 | 1.05
H3255 | 0.827
NCI-H1975 | 0.792
PC-14 | 0.876
NCI-H1299 | 1
NCI-H1437 | 1.3
HOP-62 | 0.916
NCI-H661 | 1.08
NCI-H1651 | 0.88
PC-3 [JPC-3] | 1.05
SW 1573 | 0.955
LK-2 | 1.09

Cell Line | relative viability
NCI-H1703 | 0.329
NCI-H1993 | 0.98
ChaGo-K-1 | 0.85
NCI-H1355 | 1
HCC-366 | 1.01
NCI-H1915 | 1.03
A-427 | 1.06
NCI-H2009 | 1.06
ABC-1 | 1.19
Calu-6 | 0.885
NCI-H2170 | 1
NCI-H1944 | 0.879
NCI-H358 | 0.886
EBC-1 | 0.104
A549 | 0.986
IA-LM | 1.08
SW 900 | 0.801
SK-MES-1 | 0.879

Same assay, conditions: first compound 1 µM

Cell Line | relative viability
NCI-H2126 | 1.09
EPLC-272H | 0.685
NCI-H1755 | 0.832
NCI-H2023 | 0.742
NCI-H1623 | 0.768
NCI-H1650 | 1.19
NCI-H1793 | 0.922
NCI-H2342 | 0.942
H3255 | 0.96
NCI-H1975 | 0.963
PC-14 | 0.942
NCI-H1299 | 1.09
NCI-H1437 | 1.27
HOP-62 | 1.05
BEN | 0.621
LOU-NH91 | 0.975
NCI-H661 | 0.965
NCI-H1651 | 0.789
PC-3 [JPC-3] | 1.13
SW 1573 | 0.891
LK-2 | 0.915

Cell Line | relative viability
NCI-H2405 | 1.03
NCI-H1703 | 0.374
NCI-H1993 | 0.823
ChaGo-K-1 | 0.901
NCI-H1355 | 1.03
HCC-366 | 1
NCI-H1915 | 1
NCI-H838 | 1.07
A-427 | 1.18
NCI-H2009 | 1.06
ABC-1 | 1.05
Calu-6 | 0.757
NCI-H2170 | 1.02
NCI-H1944 | 0.837
NCI-H1395 | 1.01
NCI-H358 | 0.858
EBC-1 | 0.11
A549 | 0.919
IA-LM | 0.981
SW 900 | 0.924
SK-MES-1 | 0.795

Compound: CCCS(=O)(=O)Nc1ccc(F)c(C(=O)c2c[nH]c3ncc(-c4ccc(Cl)cc4)cc23)c1F [Vemurafenib] + N=C(N)NC(=N)NCCc1ccccc1 [Phenformin] (partner 250 µM)
Assay: as above
Conditions: first compound 0.03162 µM
Method in brief: as §1

Cell Line | relative viability
NCI-H2126 | 0.513
EPLC-272H | 0.355
